Test: Solubility Test (amount of methylene chloride to completely dissolve 1 g of compound)
Assay type: physicochemical
Conditions: room temperature, methylene chloride added dropwise while stirring
Description: 1 g of the compound to be tested was added to a test tube at room temperature and methylene chloride was added dropwise while stirring to determine the amount of methylene chloride required to completely dissolve 1 g of the test compound.

| Amount of methylene chloride required to dissolve 1 g of a compound [g] | SMILES |
| --- | --- |
| 25 | CC(C)N1C(=O)c2ccc3c4c(ccc(c24)C1=O)C(=O)N(C(C)C)C3=O [Comparative Compound (9a)] |
| 17.5 | CCC(CC)N1C(=O)c2ccc3c4c(ccc(c24)C1=O)C(=O)N(C(CC)CC)C3=O [Comparative Compound (10a)] |
| 3.5 | CC(c1ccccc1)N1C(=O)c2ccc3c4c(ccc(c24)C1=O)C(=O)N(C(C)c1ccccc1)C3=O (stereo not shown) [Compound (1)] |
| 2 | CCC(c1ccccc1)N1C(=O)c2ccc3c4c(ccc(c24)C1=O)C(=O)N(C(CC)c1ccccc1)C3=O (stereo not shown) [Compound (2)] |
